Measurements taken from article PMC5836741 (Journal of medicinal chemistry, 2017).

What was measured:
M2R [1] = molecular target: T1, M2R (Homo sapiens, UniProt P08172); assay: Whole cell radioligand binding, CHO cells, M2R; conditions: M2 vs M1
T1 sequence (P08172 1-466): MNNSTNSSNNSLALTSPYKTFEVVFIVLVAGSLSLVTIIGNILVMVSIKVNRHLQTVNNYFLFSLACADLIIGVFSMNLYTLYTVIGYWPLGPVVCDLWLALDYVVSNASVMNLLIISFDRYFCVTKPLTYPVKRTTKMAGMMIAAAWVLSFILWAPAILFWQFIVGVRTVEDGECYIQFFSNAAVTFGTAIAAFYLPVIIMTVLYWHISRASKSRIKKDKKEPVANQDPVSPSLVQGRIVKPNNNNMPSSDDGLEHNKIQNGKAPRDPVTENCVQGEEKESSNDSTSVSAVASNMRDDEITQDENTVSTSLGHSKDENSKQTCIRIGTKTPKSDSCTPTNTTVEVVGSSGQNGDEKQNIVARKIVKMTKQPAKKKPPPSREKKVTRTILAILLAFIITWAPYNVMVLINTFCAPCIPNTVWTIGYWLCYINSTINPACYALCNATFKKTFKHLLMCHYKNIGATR

M2R [2] = molecular target: T1, M2R; assay: β-Arrestin recruitment assay, HEK cells, M2-TEV-tTA; type: cell-based; conditions: versus acetylcholine as reference, against the cAMP assay
hM3 mAChR = hM3 mAChR (Homo sapiens, UniProt P20309); assay: IP-One accumulation assay, CHO cells, M3R; type: cell-based; conditions: read-out: IP accumulation Emax M3R
Chain of hM3 mAChR (P20309 whole entry): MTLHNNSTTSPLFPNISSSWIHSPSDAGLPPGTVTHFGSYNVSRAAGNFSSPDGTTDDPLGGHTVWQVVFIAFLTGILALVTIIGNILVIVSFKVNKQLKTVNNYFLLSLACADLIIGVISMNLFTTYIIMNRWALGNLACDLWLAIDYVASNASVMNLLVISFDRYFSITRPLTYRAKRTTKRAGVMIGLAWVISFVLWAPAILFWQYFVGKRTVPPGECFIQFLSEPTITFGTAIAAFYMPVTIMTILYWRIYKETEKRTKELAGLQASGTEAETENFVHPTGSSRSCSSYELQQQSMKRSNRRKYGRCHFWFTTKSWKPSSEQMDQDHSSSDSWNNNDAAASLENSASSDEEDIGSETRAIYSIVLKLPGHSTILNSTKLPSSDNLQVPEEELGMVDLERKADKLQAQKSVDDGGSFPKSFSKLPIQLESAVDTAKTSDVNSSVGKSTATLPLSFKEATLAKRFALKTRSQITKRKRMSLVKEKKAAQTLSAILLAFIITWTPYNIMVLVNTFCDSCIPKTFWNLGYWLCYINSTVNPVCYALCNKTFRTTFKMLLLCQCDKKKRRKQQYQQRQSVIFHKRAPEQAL

M3R = M3R (Homo sapiens, UniProt P20309); assay: ERK1/2 phosphorylation; conditions: CHO, read-out: ERK1/2 phosphorylation Emax M3R
Chain of M3R (P20309 whole entry): as above

Structure (SMILES)	selectivity over M1 receptor (M2R [1])	bias toward arrestin (M2R [2])	Emax (hM3 mAChR)	Emax (M3R)
C[N+](C)(C)CCc1ccc2c(c1)OCC2.O=C[O-] [Compound 28]	4 fold	20 fold	–	–
CC(=O)OCC[N+](C)(C)C [acetylcholine]	–	–	100%	100%
